Here are results for 17 compounds from US8119621B2, “Tetrahydro-cyclopentyl pyrazole cannabinoid modulators” (Janssen Pharmaceutica N.V., priority 2005, dated 2012).

Usually inhibition stands for the change of the read-out against control, counted positive when it falls. The term EC50 denotes the concentration needed to bring the measured effect to its halfway point. A low value points to higher potency in that assay. The term IC50 denotes the concentration needed to halve the response being measured. Lower therefore signals higher potency.

In test [1] the target is T1, human CB1 receptor (Homo sapiens, UniProt P21554).
T1 construct: expressed in transfected cells; host or cells: SK-N-MC cells, stably transfected with pcDNA3 CB-1 (human); semi-purified membrane pellet
T1 sequence (P21554 whole entry): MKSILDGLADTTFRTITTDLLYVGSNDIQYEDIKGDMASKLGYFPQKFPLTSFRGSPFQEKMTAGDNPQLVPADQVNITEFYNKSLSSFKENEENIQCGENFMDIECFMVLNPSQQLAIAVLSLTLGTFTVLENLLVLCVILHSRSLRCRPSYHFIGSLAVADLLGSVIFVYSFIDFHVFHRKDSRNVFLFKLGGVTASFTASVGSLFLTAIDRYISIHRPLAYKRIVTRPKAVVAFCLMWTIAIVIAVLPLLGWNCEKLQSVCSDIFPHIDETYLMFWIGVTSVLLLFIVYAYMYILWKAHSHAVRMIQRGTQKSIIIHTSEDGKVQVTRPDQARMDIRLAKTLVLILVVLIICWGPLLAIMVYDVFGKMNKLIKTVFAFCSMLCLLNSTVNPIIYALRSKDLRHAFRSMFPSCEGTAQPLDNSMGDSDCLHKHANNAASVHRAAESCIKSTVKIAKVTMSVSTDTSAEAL
Briefly: Binding assay for CB1 agonists or inverse agonists ([3H]-CP-55,940 displacement, SK-N-MC membranes). The note with it: for inhibition at 0.25 µM / inhibition at 1 µM / inhibition at 0.2 µM: read-out: CB1 receptor binding percent inhibition; for inhibition at 0.2 µM: test concentration 0.2 μM (footnote 2). Here is the method:
(§1) The human CB1 and CB2 receptors were stably expressed in SK-N-MC cells transfected with pcDNA3 CB-1 (human) or pcDNA3 CB-2 (human). The cells were grown in T-180 cell culture flasks under standard cell culture conditions at 37° C. in a 5% CO2 atmosphere. The cells were harvested by trysinization and homogenized in a homogenization buffer (10 mM Tris, 0.2 mM MgCl2, 5 mM KCl, with protease inhibitors aprotinin, leupeptin, pepstatin A and bacitracin) and centrifuged (2000 g). The supernatant was then centrifuged in 2M sucrose (31,300 g) to produce a semi-purified membrane pellet. The pellet was resuspended in homogenization and stored at −80° C.
(§2) On the day of the assay, the pellet was thawed on ice and diluted in assay buffer (50 mM Tris-HCl, 5 mM MgCl2, 2.5 mM EDTA, 0.5 mg/mL fatty acid free bovine serum albumin, pH 7.5). […] The plate was covered and incubated for 90 minutes at 30° C. The contents were then aspirated onto a Packard Unifilter GF/C filter bottom plate prewet with 0.5% polyethyleneimine. The wells of the polypropylene plate were rinsed and aspirated seven times with a 0.9% saline-0.5% Tween 20 solution. The Unifilter plate was dried, a scintillation cocktail was added to each well and the counts representing binding were quantitated in a TopCount scintillation counter.
(§3) For compounds tested, an IC50 binding value was obtained from percent inhibition studies in which various test concentrations were used. The binding value was calculated by linear regression.

The next test addresses T2, human CB2 receptor (Homo sapiens, UniProt P34972).
T2 construct: expressed in transfected cells; host or cells: SK-N-MC cells, stably transfected with pcDNA3 CB-2 (human); semi-purified membrane pellet
In words: Binding assay for CB2 agonists or inverse agonists ([3H]-CP-55,940 displacement, SK-N-MC membranes). As to conditions: for inhibition at 0.25 µM / inhibition at 0.2 µM: read-out: CB2 receptor binding percent inhibition. Here is the method: as §1, §2, §3

Test [2] has as its target T1, human CB1 receptor. Briefly: Functional cell-based assay, CB1 receptor mediated change in CRE β-gal expression (adenylate cyclase activity). The source says:
The CB1 and CB2 receptors are G-protein coupled receptors (GPCR), which influence cell function via the Gi-protein. These receptors modulate the activity of intracellular adenylate cyclase, which in turn produces the intracellular signal messenger cyclic-AMP (cAMP).
At baseline, or during non-ligand bound conditions, these receptors are constitutively active and tonically suppress adenylate cyclase activity. The binding of an agonist causes further receptor activation and produces additional suppression of adenylate cyclase activity. The binding of an inverse agonist inhibits the constitutive activity of the receptors and results in an increase in adenylate cyclase activity.
Test compounds were evaluated in SK-N-MC cells which, using standard transfection procedures, were stably transfected with human cDNA for pcDNA3-CRE β-gal and pcDNA3 CB1 receptor (human) or pcDNA3 CB2 receptor (human). By expressing CRE β-gal, the cells produced β-galactosidase in response to CRE promoter activation by cAMP. Cells expressing CRE β-gal and either the human CB1 or CB2 receptor will produce less β-galactosidase when treated with a CB1/CB2 agonist and will produce more β-galactosidase when treated with a CB1/CB2 inverse agonist.
The cells were grown in 96-well plates under standard cell culture conditions at 37° C. in a 5% CO2 atmosphere. After 3 days, the media was removed and a test compound in media (wherein the media was supplemented with 2 mM L-glutamine, […] sodium pyruvate, 0.1% low fatty acid FBS (fetal bovine serum) and antibiotics) was added to the cell. The plates were incubated for 30 minutes at 37° C. and the plate cells were then treated with forskolin over a 4-6 hour period, then washed and lysed. The β-galactosidase activity was quantitated using commercially available kit reagents (Promega Corp. Madison, Wis.) and a Vmax Plate Reader (Molecular Devices, Inc).
The change in β-galactosidase activity was determined by setting a vehicle treated cell's activity value at 100% and expressing the β-galactosidase activity measured in a corresponding compound treated cell as a percent of the vehicle treated cell activity.
The EC50 value for functional activity for compounds tested was calculated by linear regression and was obtained from studies in which varying compound concentrations were used.
Where an EC50 value was not obtained for a test compound, the value shown (in %) represents change in functional activity and was obtained from a study in which one compound concentration was used.

Setting [3] is: test concentration 0.25 μM (footnote 3).
Where [4] appears, read: CB1 Receptor Functional Inverse Agonist EC50, SK-N-MC cells, CRE β-gal, forskolin.
[5] abbreviates: test concentration 0.2 μM (footnote 2).

The structures appear in SMILES notation. Where “and” joins values, the source holds several entries; their conditions need not be identical. Equal values may be shown once. Read-outs that look alike come from different tables or passages of the source.

T2 sequence (P34972 whole entry): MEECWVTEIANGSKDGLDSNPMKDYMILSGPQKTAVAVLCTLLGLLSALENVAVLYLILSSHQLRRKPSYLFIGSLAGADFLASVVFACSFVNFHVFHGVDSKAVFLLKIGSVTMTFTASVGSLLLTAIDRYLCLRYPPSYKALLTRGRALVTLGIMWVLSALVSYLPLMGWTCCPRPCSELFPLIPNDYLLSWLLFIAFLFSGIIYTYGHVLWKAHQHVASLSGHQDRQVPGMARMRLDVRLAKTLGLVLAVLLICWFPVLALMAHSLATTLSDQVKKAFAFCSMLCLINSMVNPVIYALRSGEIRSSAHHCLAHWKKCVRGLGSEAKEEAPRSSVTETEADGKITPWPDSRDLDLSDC

As to `O=S(=O)(/C=C/c1nn(-c2ccc(F)cc2F)c2c1CCC2Cc1cccc(F)c1)NN1CCCCC1` (centres unmarked) [Cpd 3, (2E)-2-[1-(2,4-difluoro-phenyl)-6-(3-fluoro-benzyl)-1,4,5,6-tetrahydro-cyclopentapyrazol-3-yl]-ethenesulfonic acid piperidin-1-ylamide], the values for the inhibition at 0.25 µM at human CB1 receptor [1] (setting [3]) and on human CB2 receptor (setting [3]) were 22% and 0%, respectively. On human CB1 receptor [2], the EC50 is 5.6 µM.

Consider `O=C(NCc1ccccc1)c1nn(-c2ccc(F)cc2F)c2c1CCC2Cc1cccc(F)c1` (centres unmarked) [Cpd 16, 1-(2,4-difluoro-phenyl)-6-(3-fluoro-benzyl)-1,4,5,6-tetrahydro-cyclopentapyrazole-3-carboxylic acid benzylamide], for which the figures for the inhibition at 0.25 µM on human CB1 receptor [1] and at human CB2 receptor (setting [3]) were 26% and 0%, respectively. The EC50 on human CB1 receptor [2] (setting [4]) came to 0.4 µM.

For the compound `O=C(N[C@@H]1c2ccccc2C[C@@H]1O)c1nn(-c2ccc(F)cc2F)c2c1CCC2Cc1cccc(F)c1` (stereo partly drawn) [Cpd 12, 1-(2,4-difluoro-phenyl)-6-(3-fluoro-benzyl)-1,4,5,6-tetrahydro-cyclopentapyrazole-3-carboxylic acid [(1R,2S)-2-hydroxy-indan-1-yl]-amide], on human CB1 receptor [1], the IC50 turned out to be 0.09 µM and the inhibition at 0.25 µM was 63%. On human CB2 receptor (setting [3]), the “CB2 receptor binding percent inhibition” value was “^(3) 31%”.

For `C[C@H](NS(=O)(=O)/C=C/c1nn(-c2ccc(F)cc2F)c2c1CCC2Cc1cccc(F)c1)c1ccccc1` (stereo partly drawn) [Cpd 1, (2E)-2-[1-(2,4-difluoro-phenyl)-6-(3-fluoro-benzyl)-1,4,5,6-tetrahydro-cyclopentapyrazol-3-yl]-ethenesulfonic acid [(1S)-1-phenyl-ethyl]-amide], the inhibition at 0.25 µM at human CB1 receptor [1] was found to be 5%; at human CB2 receptor, 14%. At human CB1 receptor [2] (CB1 receptor functional agonist EC50, SK-N-MC cells, CRE β-gal, functional agonist), this compound displayed an EC50 of 0.04 µM.

As for `O=C(c1nn(-c2ccc(F)cc2F)c2c1CCC2Cc1cccc(F)c1)N1CCN(c2ccccc2)CC1` (centres unmarked) [Cpd 17, [1-(2,4-difluoro-phenyl)-6-(3-fluoro-benzyl)-1,4,5,6-tetrahydro-cyclopentapyrazol-3-yl]-(4-phenyl-piperazin-1-yl)-methanone], the inhibition at 1 µM at human CB1 receptor [1] worked out at 35%. On human CB1 receptor [2] (setting [4]), the concentration for a half-maximal effect (EC50) is 0.4 µM and 0.1 µM.

As to `O=S(=O)(/C=C/c1nn(-c2ccc(Cl)cc2Cl)c2c1CCC2Cc1cccc(Cl)c1)NN1CCCCC1` (centres unmarked) [Cpd 10, (2E)-2-[6-(3-chloro-benzyl)-1-(2,4-dichloro-phenyl)-1,4,5,6-tetrahydro-cyclopentapyrazol-3-yl]-ethenesulfonic acid piperidin-1-ylamide], the inhibition at 1 µM on human CB1 receptor [1] (test concentration 1 μM (footnote 1)) worked out at 18%.

The compound `O=C(NN1CCCCC1)c1nn(-c2ccc(Cl)cc2Cl)c2c1CC/C2=C\c1ccc(F)cc1` [Cpd 28, (6E)-1-(2,4-dichloro-phenyl)-6-(4-fluoro-benzylidene)-1,4,5,6-tetrahydro-cyclopentapyrazole-3-carboxylic acid piperidin-1-ylamide] registered a half-inhibitory concentration (IC50) at human CB1 receptor [1] of 0.06 µM. The “CB1 receptor binding percent inhibition” value on human CB1 receptor [1] (0.2 µM) was 0.06, ^(2) 68%. For the same compound, the “CB2 receptor binding percent inhibition” value at human CB2 receptor (setting [5]) is reported as “^(2) 4%”.

Turning to `C[C@H](NC(=O)c1nn(-c2ccc(F)cc2F)c2c1CCC2Cc1cccc(F)c1)C1CCCCC1` (stereo partly drawn) [Cpd 20, 1-(2,4-difluoro-phenyl)-6-(3-fluoro-benzyl)-1,4,5,6-tetrahydro-cyclopentapyrazole-3-carboxylic acid [(1S)-1-cyclohexyl-ethyl]-amide], the inhibition at 0.25 µM at human CB1 receptor [1] was 70%; at human CB2 receptor it was 44%. Also, the “CB1 Receptor Functional Activity (change in functional activity)” value on human CB1 receptor [2] (one compound concentration, vehicle treated cell = 100%) is recorded as 37%.

In the case of `O=C(N[C@@H](CO)Cc1ccccc1)c1nn(-c2ccc(F)cc2F)c2c1CCC2Cc1cccc(F)c1` (stereo partly drawn) [Cpd 25, 1-(2,4-difluoro-phenyl)-6-(3-fluoro-benzyl)-1,4,5,6-tetrahydro-cyclopentapyrazole-3-carboxylic acid [(1R)-1-benzyl-2-hydroxy-ethyl]-amide], the inhibition at 0.2 µM was 23% on human CB1 receptor [1] and 31% at human CB2 receptor (setting [5]).

For `O=C(N[C@@H](CCl)c1ccccc1)c1nn(-c2ccc(F)cc2F)c2c1CCC2Cc1cccc(F)c1` (stereo partly drawn) [Cpd 26, 1-(2,4-difluoro-phenyl)-6-(3-fluoro-benzyl)-1,4,5,6-tetrahydro-cyclopentapyrazole-3-carboxylic acid [(1R)-2-chloro-1-phenyl-ethyl]-amide], the values for the inhibition at 0.2 µM at human CB1 receptor [1] and on human CB2 receptor (setting [5]) were 24% and 32%, respectively.

For `C[C@H](NS(=O)(=O)/C=C/c1nn(-c2ccc(Cl)cc2Cl)c2c1CCC2Cc1cccc(Cl)c1)c1ccccc1` (stereo partly drawn) [Cpd 11, (2E)-2-[6-(3-chloro-benzyl)-1-(2,4-dichloro-phenyl)-1,4,5,6-tetrahydro-cyclopentapyrazol-3-yl]-ethenesulfonic acid [(1S)-1-phenyl-ethyl]-amide], the inhibition at 0.25 µM on human CB1 receptor [1] (setting [3]) turned out to be 27%.

With `O=C(N[C@H](CCl)Cc1ccccc1)c1nn(-c2ccc(F)cc2F)c2c1CCC2Cc1cccc(F)c1` (stereo partly drawn) [Cpd 27, 1-(2,4-difluoro-phenyl)-6-(3-fluoro-benzyl)-1,4,5,6-tetrahydro-cyclopentapyrazole-3-carboxylic acid [(1S)-1-benzyl-2-chloro-ethyl]-amide], the inhibition at 0.2 µM was 14% at human CB1 receptor [1] and 22% on human CB2 receptor (setting [5]).

Turning to `CC12CCC(C1)C(C)(C)[C@H]2NC(=O)c1nn(-c2ccc(F)cc2F)c2c1CCC2Cc1cccc(F)c1` (stereo partly drawn) [Cpd 7, 1-(2,4-difluoro-phenyl)-6-(3-fluoro-benzyl)-1,4,5,6-tetrahydro-cyclopentapyrazole-3-carboxylic acid [(2S)-1,3,3-trimethyl-bicyclo[2.2.1]hept-2-yl]-amide], the inhibition at 0.25 µM at human CB1 receptor [1] came to 60%; at human CB2 receptor, 70%.

In the case of `O=C(N[C@H](CO)c1ccccc1)c1nn(-c2ccc(F)cc2F)c2c1CCC2Cc1cccc(F)c1` (stereo partly drawn) [Cpd 24, 1-(2,4-difluoro-phenyl)-6-(3-fluoro-benzyl)-1,4,5,6-tetrahydro-cyclopentapyrazole-3-carboxylic acid [(1S)-2-hydroxy-1-phenyl-ethyl]-amide], the inhibition at 0.2 µM at human CB1 receptor [1] and on human CB2 receptor (setting [5]) was 0% throughout.

Turning to `O=C(c1nn(-c2ccc(F)cc2F)c2c1CCC2Cc1cccc(F)c1)N1CCOCC1` (centres unmarked) [Cpd 23, [1-(2,4-difluoro-phenyl)-6-(3-fluoro-benzyl)-1,4,5,6-tetrahydro-cyclopentapyrazol-3-yl]-morpholin-4-yl-methanone], the inhibition at 0.25 µM on human CB1 receptor [1] (setting [3]) and at human CB2 receptor (setting [3]) was 0% in each case.

Take `O=C(NN1CCOCC1)c1nn(-c2ccc(F)cc2F)c2c1CCC2Cc1cccc(F)c1` (centres unmarked) [Cpd 22, 1-(2,4-difluoro-phenyl)-6-(3-fluoro-benzyl)-1,4,5,6-tetrahydro-cyclopentapyrazole-3-carboxylic acid morpholin-4-ylamide]: the inhibition at 0.25 µM is 14% at human CB1 receptor [1] (setting [3]) and 0% on human CB2 receptor (setting [3]).

Turning to `C[C@@H](NS(=O)(=O)/C=C/c1nn(-c2ccc(Cl)cc2Cl)c2c1CCC2Cc1cccc(Cl)c1)C1CCCCC1` (stereo partly drawn) [Cpd 9, (2E)-2-[6-(3-chloro-benzyl)-1-(2,4-dichloro-phenyl)-1,4,5,6-tetrahydro-cyclopentapyrazol-3-yl]-ethenesulfonic acid [(1R)-1-cyclohexyl-ethyl]-amide], the inhibition at 0.25 µM was 44% at human CB1 receptor [1] (setting [3]) and 18% on human CB2 receptor (setting [3]).
